According to patent US12077503B2, “Substituted cyclic amides and their use as herbicides” (FMC CORPORATION, priority 2015, dated 2024):

Experiments:
Assay type in all cases: in vivo
[1] = tested on: giant foxtail (Setaria faberii); test: Test A preemergence; details: for Plant response rating, Foxtail, Giant: 125 g ai/ha, preemergence, 0 to 100 scale (0 no effect, 100 complete control); for Foxtail, Giant plant response rating (0 to 100 scale, 0 is no effect, 100 is complete control): Preemergence, 500 g ai/ha, visual injury approx. 10 d
In short: (§1)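 Visual injury scores from 0, no effect, to 100, complete control, were assigned versus untreated controls roughly 10 d after treatment in the greenhouse. Test chemicals, formulated with surfactant in a non-phytotoxic solvent, were applied to planted seeds as a preemergence soil spray or postemergence to one- to two-leaf plants 2 to 10 cm tall, in loam–sand soil.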

[2] = tested on: barnyardgrass (Echinochloa crus-galli); test: Test A preemergence; details: for Plant response rating, Barnyardgrass: 125 g ai/ha, preemergence, 0 to 100 scale (0 no effect, 100 complete control); for Barnyardgrass plant response rating (0 to 100 scale, 0 is no effect, 100 is complete control): Preemergence, 500 g ai/ha, visual injury approx. 10 d
In short: as §1

[3] = tested on: ragweed (common ragweed, Ambrosia elatior); test: Test A preemergence; details: for Plant response rating, Ragweed: 125 g ai/ha, preemergence, 0 to 100 scale (0 no effect, 100 complete control); for Ragweed plant response rating (0 to 100 scale, 0 is no effect, 100 is complete control): Preemergence, 500 g ai/ha, visual injury approx. 10 d
In short: as §1

[4] = tested on: Kochia (Kochia scoparia); test: Test A preemergence; details: for Plant response rating, Kochia: 125 g ai/ha, preemergence, 0 to 100 scale (0 no effect, 100 complete control); for Kochia plant response rating (0 to 100 scale, 0 is no effect, 100 is complete control): Preemergence, 500 g ai/ha, visual injury approx. 10 d
In short: as §1

[5] = tested on: pigweed (Amaranthus retroflexus); test: Test A preemergence; details: for Plant response rating, Pigweed: 125 g ai/ha, preemergence, 0 to 100 scale (0 no effect, 100 complete control); for Pigweed plant response rating (0 to 100 scale, 0 is no effect, 100 is complete control): Preemergence, 500 g ai/ha, visual injury approx. 10 d
[6] = tested on: ryegrass, Italian (Italian ryegrass, Lolium multiflorum); test: Test A preemergence; details: for Plant response rating, Ryegrass, Italian: 125 g ai/ha, preemergence, 0 to 100 scale (0 no effect, 100 complete control); for Ryegrass, Italian plant response rating (0 to 100 scale, 0 is no effect, 100 is complete control): Preemergence, 500 g ai/ha, visual injury approx. 10 d
In short: as §1

[7] = tested on: wheat (Triticum aestivum); test: Test A postemergence; details: postemergence; for Wheat plant response rating: 125 g ai/ha, visual injury rating on 0 to 100 scale (0 no effect, 100 complete control), approx. 10 d; for Plant response rating, Wheat: 500 g ai/ha, 0 to 100 scale, 0 no effect, 100 complete control
In short: as §1

[8] = tested on: giant foxtail (Setaria faberii); test: Test A postemergence; details: postemergence; for Foxtail, Giant plant response rating: 125 g ai/ha, visual injury rating on 0 to 100 scale (0 no effect, 100 complete control), approx. 10 d; for Plant response rating, Foxtail, Giant: 500 g ai/ha, 0 to 100 scale, 0 no effect, 100 complete control
In short: as §1

[9] = tested on: barnyardgrass (Echinochloa crus-galli); test: Test A postemergence; details: postemergence; for Barnyardgrass plant response rating: 125 g ai/ha, visual injury rating on 0 to 100 scale (0 no effect, 100 complete control), approx. 10 d; for Plant response rating, Barnyardgrass: 500 g ai/ha, 0 to 100 scale, 0 no effect, 100 complete control
In short: as §1

[10] = tested on: ragweed (common ragweed, Ambrosia elatior); test: Test A postemergence; details: postemergence; for Ragweed plant response rating: 125 g ai/ha, visual injury rating on 0 to 100 scale (0 no effect, 100 complete control), approx. 10 d; for Plant response rating, Ragweed: 500 g ai/ha, 0 to 100 scale, 0 no effect, 100 complete control
In short: as §1

[11] = tested on: Kochia (Kochia scoparia); test: Test A postemergence; details: postemergence; for Kochia plant response rating: 125 g ai/ha, visual injury rating on 0 to 100 scale (0 no effect, 100 complete control), approx. 10 d; for Plant response rating, Kochia: 500 g ai/ha, 0 to 100 scale, 0 no effect, 100 complete control
In short: as §1

[12] = tested on: pigweed (Amaranthus retroflexus); test: Test A postemergence; details: postemergence; for Pigweed plant response rating: 125 g ai/ha, visual injury rating on 0 to 100 scale (0 no effect, 100 complete control), approx. 10 d; for Plant response rating, Pigweed: 500 g ai/ha, 0 to 100 scale, 0 no effect, 100 complete control
In short: as §1

[13] = tested on: blackgrass (Alopecurus myosuroides); test: Test A postemergence; details: postemergence; for Blackgrass plant response rating: 125 g ai/ha, visual injury rating on 0 to 100 scale (0 no effect, 100 complete control), approx. 10 d; for Plant response rating, Blackgrass: 500 g ai/ha, 0 to 100 scale, 0 no effect, 100 complete control
In short: as §1

[14] = tested on: corn (Zea mays); test: Test A postemergence; details: postemergence; for Corn plant response rating: 125 g ai/ha, visual injury rating on 0 to 100 scale (0 no effect, 100 complete control), approx. 10 d; for Plant response rating, Corn: 500 g ai/ha, 0 to 100 scale, 0 no effect, 100 complete control
In short: as §1

[15] = tested on: Galium (catchweed bedstraw, Galium aparine); test: Test A postemergence; details: postemergence; for Galium plant response rating: 125 g ai/ha, visual injury rating on 0 to 100 scale (0 no effect, 100 complete control), approx. 10 d; for Plant response rating, Galium: 500 g ai/ha, 0 to 100 scale, 0 no effect, 100 complete control
In short: as §1

[16] = tested on: ryegrass, Italian (Italian ryegrass, Lolium multiflorum); test: Test A postemergence; details: postemergence; for Ryegrass, Italian plant response rating: 125 g ai/ha, visual injury rating on 0 to 100 scale (0 no effect, 100 complete control), approx. 10 d; for Plant response rating, Ryegrass, Italian: 500 g ai/ha, 0 to 100 scale, 0 no effect, 100 complete control
In short: as §1

[17] = tested on: ducksalad (Heteranthera limosa); test: Test B flooded paddy test; details: Flood, 0 to 100 scale where 0 is no effect and 100 is complete control, 13 to 15 d
In short: (§2)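 Compound goes directly into floodwater once pots are flooded 3 cm above soil, targeting plants at two leaves; the water depth is then held for the test duration. Plants sit 13–15 d in a greenhouse and are rated visually, 100 denoting complete control.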

[18] = tested on: sedge, umbrella (small-flower umbrella sedge, Cyperus difformis); test: Test B flooded paddy test; details: Flood, 0 to 100 scale where 0 is no effect and 100 is complete control, 13 to 15 d
In short: as §2

[19] = tested on: barnyardgrass (Echinochloa crus-galli); test: Test B flooded paddy test; details: Flood, 0 to 100 scale where 0 is no effect and 100 is complete control, 13 to 15 d
In short: as §2

[20] = tested on: rice (Oryra sativa); test: Test B flooded paddy test; details: Flood, 0 to 100 scale where 0 is no effect and 100 is complete control, 13 to 15 d
In short: as §2

SMILES: Cc1cc(C2CN(C)C(=O)C2C(=O)Nc2ccc(F)cc2F)ccc1F (stereo not drawn) [Compound 404]
- Plant response rating, Foxtail, Giant [1]: 90
- Foxtail, Giant plant response rating (0 to 100 scale, 0 is no effect, 100 is complete control) [1]: 90
- Plant response rating, Barnyardgrass [2]: 90
- Barnyardgrass plant response rating (0 to 100 scale, 0 is no effect, 100 is complete control) [2]: 90
- Plant response rating, Ragweed [3]: 0
- Ragweed plant response rating (0 to 100 scale, 0 is no effect, 100 is complete control) [3]: 50
- Plant response rating, Kochia [4]: 60
- Kochia plant response rating (0 to 100 scale, 0 is no effect, 100 is complete control) [4]: 70
- Plant response rating, Pigweed [5]: 30
- Pigweed plant response rating (0 to 100 scale, 0 is no effect, 100 is complete control) [5]: 60
- Plant response rating, Ryegrass, Italian [6]: 0
- Ryegrass, Italian plant response rating (0 to 100 scale, 0 is no effect, 100 is complete control) [6]: 80
- Wheat plant response rating [7]: 50
- Plant response rating, Wheat [7]: 80
- Foxtail, Giant plant response rating [8]: 90
- Plant response rating, Foxtail, Giant [8]: 90
- Barnyardgrass plant response rating [9]: 90
- Plant response rating, Barnyardgrass [9]: 90
- Ragweed plant response rating [10]: 30
- Plant response rating, Ragweed [10]: 50
- Kochia plant response rating [11]: 60
- Plant response rating, Kochia [11]: 70
- Pigweed plant response rating [12]: 20
- Plant response rating, Pigweed [12]: 60
- Blackgrass plant response rating [13]: 40
- Plant response rating, Blackgrass [13]: 60
- Corn plant response rating [14]: 40
- Plant response rating, Corn [14]: 80
- Galium plant response rating [15]: 50
- Plant response rating, Galium [15]: 50
- Ryegrass, Italian plant response rating [16]: 40
- Plant response rating, Ryegrass, Italian [16]: 70
- Plant response rating, Ducksalad ([17]; 250 g ai/ha): 100
- Plant response rating, Sedge, Umbrella ([18]; 250 g ai/ha): 0
- Plant response rating, Barnyardgrass ([19]; 250 g ai/ha): 80
- Plant response rating, Rice ([20]; 250 g ai/ha): 30

SMILES: O=C1NCC(c2ccc(F)c(F)c2)C1C(=O)Nc1ccc(F)cc1Cl (stereo not drawn) [Compound 411]
- Plant response rating, Foxtail, Giant [1]: 80
- Foxtail, Giant plant response rating (0 to 100 scale, 0 is no effect, 100 is complete control) [1]: 90
- Plant response rating, Barnyardgrass [2]: 70
- Barnyardgrass plant response rating (0 to 100 scale, 0 is no effect, 100 is complete control) [2]: 80
- Plant response rating, Ragweed [3]: 0
- Ragweed plant response rating (0 to 100 scale, 0 is no effect, 100 is complete control) [3]: 0
- Plant response rating, Kochia [4]: 0
- Kochia plant response rating (0 to 100 scale, 0 is no effect, 100 is complete control) [4]: 0
- Plant response rating, Pigweed [5]: 0
- Pigweed plant response rating (0 to 100 scale, 0 is no effect, 100 is complete control) [5]: 10
- Plant response rating, Ryegrass, Italian [6]: 0
- Ryegrass, Italian plant response rating (0 to 100 scale, 0 is no effect, 100 is complete control) [6]: 0
- Wheat plant response rating [7]: 0
- Plant response rating, Wheat [7]: 0
- Foxtail, Giant plant response rating [8]: 40
- Plant response rating, Foxtail, Giant [8]: 80
- Barnyardgrass plant response rating [9]: 40
- Plant response rating, Barnyardgrass [9]: 70
- Ragweed plant response rating [10]: 0
- Plant response rating, Ragweed [10]: 0
- Kochia plant response rating [11]: 0
- Plant response rating, Kochia [11]: 0
- Pigweed plant response rating [12]: 0
- Plant response rating, Pigweed [12]: 0
- Blackgrass plant response rating [13]: 0
- Plant response rating, Blackgrass [13]: 0
- Corn plant response rating [14]: 0
- Plant response rating, Corn [14]: 0
- Galium plant response rating [15]: 30
- Plant response rating, Galium [15]: 50
- Ryegrass, Italian plant response rating [16]: 0
- Plant response rating, Ryegrass, Italian [16]: 0
- Plant response rating, Ducksalad ([17]; 500 g ai/ha): 98
- Plant response rating, Sedge, Umbrella ([18]; 500 g ai/ha): 0
- Plant response rating, Barnyardgrass ([19]; 500 g ai/ha): 20
- Plant response rating, Rice ([20]; 500 g ai/ha): 0
